These results are taken from paper PMC8931335 (Proceedings of the National Academy of Sciences of the …, 2022).

This test concerns the target T1, MOR42-3 (Mus musculus, UniProt E9PX47).
T1 sequence (E9PX47 1-334): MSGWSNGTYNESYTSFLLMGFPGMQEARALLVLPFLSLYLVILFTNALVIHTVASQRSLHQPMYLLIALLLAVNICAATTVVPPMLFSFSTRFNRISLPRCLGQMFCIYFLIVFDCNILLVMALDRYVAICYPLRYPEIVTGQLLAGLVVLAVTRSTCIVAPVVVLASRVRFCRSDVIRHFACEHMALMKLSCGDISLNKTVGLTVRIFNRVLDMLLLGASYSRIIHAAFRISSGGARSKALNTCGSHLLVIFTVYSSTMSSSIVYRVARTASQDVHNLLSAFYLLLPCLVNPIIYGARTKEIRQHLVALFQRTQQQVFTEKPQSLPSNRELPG
Kind of test: CRE luciferase reporter assay in Hana3A cells. It counts as cell-based.

As a reminder, the EC50 is the concentration giving half of the maximal effect. Higher therefore signals weaker potency. `O=C(O)CCCCCCCC(=O)O` [NA]: the EC50 stood at 29.4 ± 12.8 µM.
